In patent EP4671240A1, “SALT CONTAINING AROMATIC RING DERIVATIVE ANTAGONIST, PREPARATION METHOD THEREFOR, AND APPLICATION THEREOF” (Jiangsu Hansoh Pharmaceutical Group Co., Ltd., priority 2023, dated 2024):
pIC50: −log10 of the molar value.

How the values were obtained:
Type in all cases: in vitro ADME
[1] = Liver microsomal metabolism stability assay (rat); details: compound 1 µM; for half-life at 1 µM: rat liver microsomes 0.5 mg/mL, NADPH/UDPGA, read-out: Rat t1/2; for Rat Remaining rate: rat liver microsomes, 60 min
Procedure: (§1) The objective of this experiment was to detect the stability of the example compounds in liver microsomes of rats, dogs and humans.
(§2) Formulation of compound working solution: compound stock solution was added to phosphate buffer to a final concentration of 20 µM.
(§3) Dilution was performed with 100 mM phosphate buffer to a final concentration of 0.625 mg/mL.
(§4) NADPH (reduced nicotinamide adenine dinucleotide phosphate) and UDPGA (uridine diphosphate glucuronic acid) were weighed, and 100 mM phosphate buffer was added to a final concentration of 20 mM.
(§5) 1 mg of Alamethicin was weighed, and 200 µL of DMSO was added to formulate a 5 mg/mL solution. Then dilution was performed with phosphate buffer to a final concentration of 50 µg/mL.
(§6) Stop solution: cold acetonitrile containing 100 ng/mL labetalol hydrochloride and 400 ng/mL tolbutamide as internal standards.
(§7) 400 µL of formulated liver microsomes, 25 µL of compound working solution and 25 µL of Alamethicin were added in sequence to a 96-well plate, and the mixture was pre-incubated at 37°C for 10 min. Then 50 µL of formulated NADPH/UDPGA was added to start the reaction and the mixture was incubated at 37°C. The total volume of the reaction system was 500 µL. The final contents of each component are as follows:
(§8) • Instrument: Shimadzu LC-30 AD; • Chromatographic column: XBridge® C18 (50*4.6 mm, 5 µm particle size); • Mobile phase: A: 0.1% formic acid solution, B: methanol • Elution gradient: 0.2-1.6 min 5% A to 95% A, 3.0-3.1 min 95% A to 5% A • Run time: 4.0 min.
(§9) • Instrument: API5500 liquid chromatography-mass spectrometer, AB Sciex; • Ion source: electrospray ionization source (ESI); • Drying gas: N2, temperature 500°C; • Electrospray voltage: 5000 V; • Detection mode: positive ion detection; • Scan mode: Multiple Reaction Monitoring (MRM) mode.

[2] = Liver microsomal metabolism stability assay (human); details: compound 1 µM; for half-life at 1 µM: human liver microsomes 0.5 mg/mL, NADPH/UDPGA, read-out: Human t1/2; for Human Remaining rate: human liver microsomes, 60 min
Procedure: as §1, §2, §3, §4, §5, §6, §7, §8, §9

CYP450 3A4-M = biological target: T1, CYP450 3A4-M (Homo sapiens, UniProt P08684); assay: CYP enzyme single-point inhibition assay, 3A4-M; details: human liver microsomes, single-point method
T1 construct: Human liver microsome incubation system was used; from tissue; host or cells: human liver microsomes
T1 sequence (P08684 whole entry): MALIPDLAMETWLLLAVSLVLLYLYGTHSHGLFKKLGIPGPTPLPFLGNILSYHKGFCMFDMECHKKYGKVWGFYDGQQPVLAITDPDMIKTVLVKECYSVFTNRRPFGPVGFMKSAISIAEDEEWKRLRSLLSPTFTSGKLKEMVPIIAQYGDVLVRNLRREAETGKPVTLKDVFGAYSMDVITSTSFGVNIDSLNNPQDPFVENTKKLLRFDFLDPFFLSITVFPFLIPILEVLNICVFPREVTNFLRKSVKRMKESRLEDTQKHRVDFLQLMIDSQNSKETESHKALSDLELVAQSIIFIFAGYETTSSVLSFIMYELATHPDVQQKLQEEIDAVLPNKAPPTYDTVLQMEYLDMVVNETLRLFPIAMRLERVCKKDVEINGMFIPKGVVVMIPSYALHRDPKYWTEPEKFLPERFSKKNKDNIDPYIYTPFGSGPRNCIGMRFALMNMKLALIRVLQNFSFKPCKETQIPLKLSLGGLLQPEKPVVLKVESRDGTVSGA
Procedure: (§10) Human liver microsome incubation system was used, and the single-point method was used to quickly predict the inhibition on CYP450 enzyme subtypes (1A2, 2C19, 2D6, 3A4-M, and 3A4-T) by compounds.
(§11) For 2.5 mM NADPH, 4.165 mg of NADPH (reduced nicotinamide adenine dinucleotide phosphate) was weighed and 100 mM phosphate buffer was added to a final volume of 2 mL. For 0.25 mg/mL microsomes, 50 µL of 20 mg/mL microsomes was mixed with […] of 100 mM phosphate buffer evenly.
(§12) The test example compounds were weighed, diluted to 10 mM with DMSO, and then diluted to 100 µM with 100 mM phosphate buffer.
(§13) • 1. Liver microsomes (40 µL), substrate (10 µL), and test compound (10 µL) were added to a 96-well plate, and the mixture was pre-incubated for 3 min. • 2. NADPH (40 µL) was added. • 3. At 20 min, acetonitrile stop solution containing internal standard (300 µL) was added. • 4. The mixture was centrifuged and the sample was loaded.

CYP450 3A4-T = biological target: T2, CYP450 3A4-T (Homo sapiens, UniProt P08684); assay: CYP enzyme single-point inhibition assay, 3A4-T; details: human liver microsomes, single-point method
T2 construct: Human liver microsome incubation system was used; from tissue; host or cells: human liver microsomes
T2 sequence (P08684 whole entry): as above
Procedure: as §10, §11, §12, §13

Row | SMILES | half-life at 1 µM [1] | Rat Remaining rate [1] | half-life at 1 µM [2] | Human Remaining rate [2] | pIC50 (CYP450 3A4-M) | pIC50 (CYP450 3A4-T)
1 | [2H]C([2H])(c1ccc(-c2ccccc2S(=O)(=O)Nc2noc(C)c2Cl)c(COCC)c1)N1C(=O)C2(CCCC2)N=C1CCCC [Example 2, 4'-((2-Butyl-4-oxo-1,3-diazaspiro[4.4]non-1-en-3-yl)methyl-d2)-N-(4-chloro-5-methylisoxazol-3-yl)-2'-(ethoxymethyl)-[1,1'-biphenyl]-2-sulfonamide] | 26.3 min | 29.4% | 38.5 min | 33.0% | 4.83 | < 4.00
2 | CCCCC1=NC2(CCCC2)C(=O)N1Cc1ccc(-c2ccccc2S(=O)(=O)Nc2noc(C)c2Cl)c(COCC)c1 [Example 8, 2-[4-[(2-Butyl-4-oxo-1,3-diazaspiro[4.4]non-1-en-3-yl)methyl]-2-(ethoxymethyl)phenyl]-N-(4-chloro-5-methyl-isoxazol-3-yl)benzenesulfonamide] | 29.9 min | 23.3% | 36.5 min | 32.0% | 4.60 | < 4.00
